Measurements as given in ChEMBL document CHEMBL5344485, “Discovery of CRN04894: A Novel Potent Selective MC2R Antagonist” (ACS Med Chem Lett, 2024).
Each block holds one molecule with its values, some of them ahead of it.

Legend:
[1] = biological target: Adrenocorticotropic hormone receptor (Homo sapiens, UniProt Q01718)
Description: Displacement of [[125I]-Tyr23]-ACTH (1-39) from human MC2R incubated for 1.5 hrs by Topcount scintillation counting method

in vitro [2] = conditions: rat, liver microsomes
Description: Stability in rat liver microsomes assessed as half life

in vivo [3] = conditions: rat, po, 10 mg/kg
in vivo [4] = conditions: rat, po, 10 mg/kg; remark: listed apart in the source
Description: Half life in rat at 10 mg/kg, po

in vivo [5] = conditions: rat, po, 10 mg/kg; remark: listed apart in the source
Description: AUClast in rat at 10 mg/kg, po

in vitro [6] = conditions: human, liver microsomes
Description: Stability in human liver microsomes assessed as half life

in vivo [7] = conditions: rat, po, 10 mg/kg; remark: listed apart in the source
in vivo [8] = conditions: rat, po, 10 mg/kg; remark: listed apart in the source
Cytochrome P450 3A4 = Cytochrome P450 3A4 (Homo sapiens, UniProt P08684)
Cytochrome P450 3A4, sequence (P08684 whole entry): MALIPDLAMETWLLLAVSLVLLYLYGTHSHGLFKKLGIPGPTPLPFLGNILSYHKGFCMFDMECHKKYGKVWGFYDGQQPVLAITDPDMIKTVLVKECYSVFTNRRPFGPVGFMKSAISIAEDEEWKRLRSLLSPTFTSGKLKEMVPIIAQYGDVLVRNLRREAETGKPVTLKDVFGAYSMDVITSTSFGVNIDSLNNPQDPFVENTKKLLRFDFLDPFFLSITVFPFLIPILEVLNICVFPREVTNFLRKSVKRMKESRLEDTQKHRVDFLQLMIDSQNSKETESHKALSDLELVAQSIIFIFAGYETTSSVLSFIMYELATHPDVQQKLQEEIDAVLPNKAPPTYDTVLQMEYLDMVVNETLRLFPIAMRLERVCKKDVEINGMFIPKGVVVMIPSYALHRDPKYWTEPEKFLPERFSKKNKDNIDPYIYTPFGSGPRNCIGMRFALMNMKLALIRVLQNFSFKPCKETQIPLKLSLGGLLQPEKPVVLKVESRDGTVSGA
Description: Time dependent inhibition of CYP3A4 (unknown origin)

in vivo [9] = conditions: dog, po, 5 mg/kg
Description: Oral bioavailability in dog at 5 mg/kg

[10] = biological target: 5-hydroxytryptamine receptor 1B (Homo sapiens, UniProt P28222)
5-hydroxytryptamine receptor 1B, sequence (P28222 whole entry): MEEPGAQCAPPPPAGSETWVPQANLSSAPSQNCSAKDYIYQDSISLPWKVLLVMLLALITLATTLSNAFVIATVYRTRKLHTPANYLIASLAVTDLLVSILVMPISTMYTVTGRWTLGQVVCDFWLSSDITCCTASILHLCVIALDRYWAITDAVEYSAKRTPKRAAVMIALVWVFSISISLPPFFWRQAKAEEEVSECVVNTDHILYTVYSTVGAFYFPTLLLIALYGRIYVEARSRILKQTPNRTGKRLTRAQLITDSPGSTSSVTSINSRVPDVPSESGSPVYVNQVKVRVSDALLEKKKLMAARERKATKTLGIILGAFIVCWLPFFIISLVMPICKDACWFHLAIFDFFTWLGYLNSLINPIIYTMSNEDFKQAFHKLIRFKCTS
Description: Antagonist activity at 5-HT1B (unknown origin)

in vivo [11] = conditions: Sprague-Dawley, rat, plasma, po, 30 mg/kg
Description: Drug concentration in Sprague-Dawley rat plasma at 30 mg/kg, po administered as single dose and stimulated with ACTH for 1 hr measured after 1.5 hrs

in vivo [12] = conditions: Sprague-Dawley, rat, plasma, po, 30 mg/kg; remark: listed apart in the source
Description: Drug concentration in Sprague-Dawley rat plasma at 30 mg/kg, po administered as single dose and stimulated with ACTH for 1 hr measured after 0.5 hr

in vivo [13] = conditions: dog, iv, 5 mg/kg
Description: Volume of distribution at steady state in dog at 5 mg/kg, iv

in vivo [14] = conditions: Sprague-Dawley, rat, plasma, po, 30 mg/kg; remark: listed apart in the source
Description: Drug concentration in Sprague-Dawley rat plasma at 30 mg/kg, po administered as single dose and stimulated with ACTH for 4 hrs measured after 0.5 hrs

in vivo [15] = conditions: rat, iv, 5 mg/kg
Description: Half life in rat at 5 mg/kg, iv

L-type calcium channel = L-type calcium channel (Homo sapiens, UniProt O60840+Q01668+Q13698+Q13936); assay: in vitro
Description: Inhibition of L-type calcium channel (unknown origin) at 10 uM relative to control

in vivo [16] = conditions: Sprague-Dawley, rat, plasma, po, 3 mg/kg
Description: Drug concentration in Sprague-Dawley rat plasma at 3 mg/kg, po administered as single dose and stimulated with ACTH for 24 hrs measured after 0.5 hrs

Melanocortin receptor 4 = Melanocortin receptor 4 (Homo sapiens, UniProt P32245)
Melanocortin receptor 4, sequence (P32245 whole entry): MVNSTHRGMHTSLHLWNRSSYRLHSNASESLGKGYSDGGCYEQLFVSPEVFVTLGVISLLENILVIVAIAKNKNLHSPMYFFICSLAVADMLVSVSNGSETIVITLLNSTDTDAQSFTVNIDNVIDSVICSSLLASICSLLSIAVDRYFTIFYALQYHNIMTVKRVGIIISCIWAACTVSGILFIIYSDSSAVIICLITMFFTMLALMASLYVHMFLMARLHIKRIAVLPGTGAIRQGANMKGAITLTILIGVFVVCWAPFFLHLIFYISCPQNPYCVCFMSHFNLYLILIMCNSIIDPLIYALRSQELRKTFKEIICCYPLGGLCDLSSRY

in vivo [17] = conditions: Sprague-Dawley, rat, plasma, po, 3 mg/kg; remark: listed apart in the source
Description: Drug concentration in Sprague-Dawley rat plasma at 3 mg/kg, po administered as single dose and stimulated with ACTH for 1 hr measured after 1.5 hrs

in vivo [18] = conditions: Sprague-Dawley, rat, plasma, po, 30 mg/kg; remark: listed apart in the source
Description: Drug concentration in Sprague-Dawley rat plasma at 30 mg/kg, po administered as single dose and stimulated with ACTH for 24 hrs measured after 0.5 hrs

in vivo [19] = conditions: rat, iv, 5 mg/kg; remark: listed apart in the source
Description: Volume of distribution at steady state in rat at 5 mg/kg, iv

in vivo [20] = conditions: Sprague-Dawley, rat, plasma, po, 30 mg/kg; remark: listed apart in the source
Description: Drug concentration in Sprague-Dawley rat plasma at 30 mg/kg, po administered as single dose and stimulated with ACTH for 24 hrs measured after 1.5 hrs

in vivo [21] = conditions: Sprague-Dawley, rat, plasma, po, 30 mg/kg; remark: listed apart in the source
Description: Drug concentration in Sprague-Dawley rat plasma at 30 mg/kg, po administered as single dose and stimulated with ACTH for 48 hrs measured after 0.5 hrs

in vivo [22] = conditions: Sprague-Dawley, rat, plasma, po, 3 mg/kg; remark: listed apart in the source
Description: Drug concentration in Sprague-Dawley rat plasma at 3 mg/kg, po administered as single dose and stimulated with ACTH for 4 hrs measured after 0.5 hrs

in vivo [23] = conditions: Sprague-Dawley, rat, plasma, po, 3 mg/kg; remark: listed apart in the source
Description: Drug concentration in Sprague-Dawley rat plasma at 3 mg/kg, po administered as single dose and stimulated with ACTH for 4 hrs measured after 1.5 hrs

Cytochrome P450 2C9 = Cytochrome P450 2C9 (Homo sapiens, UniProt P11712)
Cytochrome P450 2C9, sequence (P11712 whole entry): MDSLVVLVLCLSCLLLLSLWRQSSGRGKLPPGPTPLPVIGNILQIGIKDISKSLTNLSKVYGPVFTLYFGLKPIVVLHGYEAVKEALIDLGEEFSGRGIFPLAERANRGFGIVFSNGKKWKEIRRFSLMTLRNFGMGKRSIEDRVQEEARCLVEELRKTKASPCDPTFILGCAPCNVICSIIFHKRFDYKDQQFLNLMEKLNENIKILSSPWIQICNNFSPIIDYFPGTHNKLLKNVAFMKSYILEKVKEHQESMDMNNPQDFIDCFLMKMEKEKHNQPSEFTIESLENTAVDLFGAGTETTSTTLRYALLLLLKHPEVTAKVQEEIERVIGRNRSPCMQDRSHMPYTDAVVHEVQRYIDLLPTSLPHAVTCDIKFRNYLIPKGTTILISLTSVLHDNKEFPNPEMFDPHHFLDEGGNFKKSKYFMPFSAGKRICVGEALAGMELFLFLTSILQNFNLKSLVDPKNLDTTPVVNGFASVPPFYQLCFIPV
Description: Inhibition of CYP2C9 (unknown origin)

in vivo [24] = conditions: rat, iv, 5 mg/kg; remark: listed apart in the source
Description: Clearance in rat at 5 mg/kg, iv

in vivo [25] = conditions: dog, iv, 5 mg/kg; remark: listed apart in the source
Description: Half life in dog at 5 mg/kg, iv

in vivo [26] = conditions: dog, po, 5 mg/kg; remark: listed apart in the source
Description: AUClast in dog at 5 mg/kg, po

Cytochrome P450 2D6 = Cytochrome P450 2D6 (Homo sapiens, UniProt P10635)
Cytochrome P450 2D6, sequence (P10635 whole entry): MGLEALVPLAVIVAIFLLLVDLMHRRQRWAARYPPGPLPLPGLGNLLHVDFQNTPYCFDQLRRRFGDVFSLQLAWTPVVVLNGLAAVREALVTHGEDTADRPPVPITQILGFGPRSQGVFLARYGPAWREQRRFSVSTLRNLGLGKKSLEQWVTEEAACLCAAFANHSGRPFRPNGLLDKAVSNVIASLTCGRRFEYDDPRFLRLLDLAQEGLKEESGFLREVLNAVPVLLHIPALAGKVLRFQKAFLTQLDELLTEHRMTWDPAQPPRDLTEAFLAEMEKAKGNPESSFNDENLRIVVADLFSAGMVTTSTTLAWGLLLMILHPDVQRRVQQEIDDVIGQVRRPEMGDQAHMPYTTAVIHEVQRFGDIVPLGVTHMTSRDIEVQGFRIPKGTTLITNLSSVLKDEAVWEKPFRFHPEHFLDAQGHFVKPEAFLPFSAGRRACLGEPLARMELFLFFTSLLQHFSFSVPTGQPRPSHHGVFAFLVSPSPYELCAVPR
Description: Time dependent inhibition of CYP2D6 (unknown origin)

in vivo [27] = conditions: dog, iv, 5 mg/kg; remark: listed apart in the source
Description: Clearance in dog at 5 mg/kg, iv

Melanocortin receptor 3 = Melanocortin receptor 3 (Homo sapiens, UniProt P41968)
Melanocortin receptor 3, sequence (P41968 whole entry): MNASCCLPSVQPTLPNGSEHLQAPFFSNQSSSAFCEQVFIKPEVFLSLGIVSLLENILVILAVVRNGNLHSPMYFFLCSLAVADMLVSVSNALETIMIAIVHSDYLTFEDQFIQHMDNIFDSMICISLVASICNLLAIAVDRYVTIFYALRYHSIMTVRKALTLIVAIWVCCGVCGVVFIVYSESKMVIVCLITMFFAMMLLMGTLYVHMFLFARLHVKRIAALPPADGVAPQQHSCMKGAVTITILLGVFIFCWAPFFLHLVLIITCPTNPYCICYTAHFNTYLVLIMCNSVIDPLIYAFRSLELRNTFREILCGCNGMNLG

in vivo [28] = conditions: rat, po, 5 mg/kg
Description: Cmax in rat at 5 mg/kg, po

MDR1 = assay: in vitro; conditions: dog, MDCK-MDR1
Description: Efflux ratio of apparent permeability across basolateral to apical over apical to basolateral in MDCK-MDR1 cells

in vivo [29] = conditions: Sprague-Dawley, rat, plasma, po, 3 mg/kg; remark: listed apart in the source
Description: Drug concentration in Sprague-Dawley rat plasma at 3 mg/kg, po administered as single dose and stimulated with ACTH for 1 hr measured after 0.5 hr

in vitro [30] = conditions: dog, MDCK
Description: Apparent permeability in MDCK cells

in vitro [31] = conditions: human, plasma
Description: Plasma protein binding in human at 1 uM

in vivo [32] = conditions: rat, po, 5 mg/kg; remark: listed apart in the source
Description: AUClast in rat at 5 mg/kg, po

in vivo [33] = conditions: Sprague-Dawley, rat, plasma, po, 30 mg/kg; remark: listed apart in the source
Description: Drug concentration in Sprague-Dawley rat plasma at 30 mg/kg, po administered as single dose and stimulated with ACTH for 4 hrs measured after 1.5 hrs

in vitro [34] = conditions: rat, plasma
Description: Plasma protein binding in rat at 1 uM

in vivo [35] = conditions: dog, po, 5 mg/kg; remark: listed apart in the source
Description: Cmax in dog at 5 mg/kg, po

Cytochrome P450 2C19 = Cytochrome P450 2C19 (Homo sapiens, UniProt P33261)
Cytochrome P450 2C19, sequence (P33261 whole entry): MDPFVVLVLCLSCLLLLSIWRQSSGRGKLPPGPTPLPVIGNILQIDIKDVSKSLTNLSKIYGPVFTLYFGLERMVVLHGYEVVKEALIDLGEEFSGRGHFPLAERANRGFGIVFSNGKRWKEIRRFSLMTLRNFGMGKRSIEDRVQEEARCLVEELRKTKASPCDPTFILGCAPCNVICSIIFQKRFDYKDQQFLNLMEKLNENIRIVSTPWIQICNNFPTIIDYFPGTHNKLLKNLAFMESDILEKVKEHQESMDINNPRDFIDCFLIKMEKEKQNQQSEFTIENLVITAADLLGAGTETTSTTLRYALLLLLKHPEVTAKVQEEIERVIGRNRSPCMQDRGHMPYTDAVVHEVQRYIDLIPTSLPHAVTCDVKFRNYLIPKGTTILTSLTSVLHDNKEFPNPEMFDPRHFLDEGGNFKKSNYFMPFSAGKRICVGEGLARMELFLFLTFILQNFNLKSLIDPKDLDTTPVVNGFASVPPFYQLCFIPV
Description: Inhibition of CYP2C19 (unknown origin)

in vitro [36] = conditions: dog, plasma
Description: Plasma protein binding in dog at 1 uM

in vivo [37] = conditions: rat, po, 5 mg/kg; remark: listed apart in the source
Description: Oral bioavailability in rat at 5 mg/kg

[38] = biological target: Melanocyte-stimulating hormone receptor (Homo sapiens, UniProt Q01726)
Melanocyte-stimulating hormone receptor, sequence (Q01726 whole entry): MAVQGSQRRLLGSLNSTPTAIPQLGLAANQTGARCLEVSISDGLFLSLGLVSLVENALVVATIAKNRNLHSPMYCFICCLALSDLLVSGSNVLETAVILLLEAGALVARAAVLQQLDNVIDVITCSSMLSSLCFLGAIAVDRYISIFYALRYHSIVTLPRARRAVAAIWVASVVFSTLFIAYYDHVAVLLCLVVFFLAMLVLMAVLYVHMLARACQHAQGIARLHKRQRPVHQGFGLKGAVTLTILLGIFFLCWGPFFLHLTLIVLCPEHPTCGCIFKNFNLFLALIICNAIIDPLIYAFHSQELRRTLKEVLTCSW

Melanocortin receptor 5 = Melanocortin receptor 5 (Homo sapiens, UniProt P33032)
Melanocortin receptor 5, sequence (P33032 whole entry): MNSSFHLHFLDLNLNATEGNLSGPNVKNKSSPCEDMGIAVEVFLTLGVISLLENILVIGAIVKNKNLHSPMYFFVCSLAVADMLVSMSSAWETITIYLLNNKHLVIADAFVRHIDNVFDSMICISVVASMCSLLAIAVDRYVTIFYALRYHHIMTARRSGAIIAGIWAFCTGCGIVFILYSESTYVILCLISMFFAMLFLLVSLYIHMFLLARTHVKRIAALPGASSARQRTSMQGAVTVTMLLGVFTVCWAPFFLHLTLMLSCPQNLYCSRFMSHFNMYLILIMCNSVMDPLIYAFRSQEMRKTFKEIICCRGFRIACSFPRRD

Adrenocorticotropic hormone receptor, sequence (Q01718 whole entry): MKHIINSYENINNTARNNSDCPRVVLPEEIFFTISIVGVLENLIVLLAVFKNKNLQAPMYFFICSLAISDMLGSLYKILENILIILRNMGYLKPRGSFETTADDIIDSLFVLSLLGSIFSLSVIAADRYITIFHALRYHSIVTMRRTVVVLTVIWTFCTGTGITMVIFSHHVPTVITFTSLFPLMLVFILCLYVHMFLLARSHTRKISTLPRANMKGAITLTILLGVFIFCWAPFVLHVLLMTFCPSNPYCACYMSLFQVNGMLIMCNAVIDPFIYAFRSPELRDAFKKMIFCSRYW

Structure (SMILES): CCOc1ncccc1-c1ccc(N2CCN(C(=O)c3ccc(Cl)cc3C(F)(F)F)C[C@H]2CC)c(C(=O)N[C@@H]2CCN(C)C2)n1
half-life (in vitro [2]): 0.717 h
bioavailability (in vivo [3]): 17%
half-life (in vivo [4]): 2.2 h
Ki [1]: 0.3 nM
AUC(0-t) (in vivo [5]): 1.44 µM·h
half-life (in vitro [6]): 0.583 h

Structure (SMILES): CCOc1ccccc1-c1ccc(N2CCN(C(=O)c3ccc(Cl)cc3C(F)(F)F)C[C@H]2CC)c(C(=O)NCCN)c1
Ki [1]: 1.6 nM

Structure (SMILES): CC[C@@H]1CN(C(=O)c2ccc(C(F)(F)F)cc2Cl)CCN1c1ccc(-c2ccccc2C#N)cc1C(=O)NCCN
Ki [1]: 25 nM

Structure (SMILES): CCOc1ncccc1-c1ccc(N2CCN(C(=O)C3(C(F)(F)F)CCC3)C[C@H]2CC)c(C(=O)N[C@@H]2CN3CCC2CC3)n1
Ki [1]: 4.4 nM

Structure (SMILES): CCOc1ncccc1-c1ccc(N2CCN(C(=O)C3(C(F)(F)F)CCCC3)C[C@H]2CC)c(C(=O)N[C@@H]2CCN(C)C2)n1
half-life (in vitro [2]): 3.85 h
Ki [1]: 0.63 nM
half-life (in vitro [6]): 0.383 h

Structure (SMILES): CCOc1ncccc1-c1ccc(N2CCN(C(=O)c3ccc(Cl)cc3C(F)(F)F)C[C@H]2CC)c(C(=O)NCCN(C)C)n1
half-life (in vitro [2]): 0.35 h
bioavailability (in vivo [3]): 8%
half-life (in vivo [4]): 1.6 h
Ki [1]: 0.39 nM
AUC(0-t) (in vivo [5]): 0.349 µM·h
half-life (in vitro [6]): 0.383 h

Structure (SMILES): CCOc1ncccc1-c1ccc(N2CCN(C(=O)c3ccc(Cl)cc3C(F)(F)F)C[C@H]2CC)c(C(=O)N[C@@H]2CCNC2)n1
half-life (in vitro [2]): 5.78 h
half-life (in vivo [4]): 4 h
Ki [1]: 0.32 nM
AUC(0-t) (in vivo [5]): 0.279 µM·h
half-life (in vitro [6]): 3.85 h

Structure (SMILES): CCOc1ccccc1-c1ccc(N2CCN(C(=O)C3(C(F)(F)F)CCC3)C[C@H]2CC)c(C(=O)N[C@@H]2CCN(C)C2)n1
half-life (in vitro [2]): 3.85 h
Ki [1]: 1.3 nM
half-life (in vitro [6]): 1.93 h

Structure (SMILES): CCOc1ncccc1-c1ccc(N2CCN(C(=O)c3ccc(Cl)cc3C(F)(F)F)C[C@H]2CC)c(C(=O)NCCN(C)C)c1
Ki [1]: 1.5 nM

Structure (SMILES): CCOc1ncccc1-c1ccc(N2CCN(C(=O)c3ccc(Cl)cc3C(F)(F)F)C[C@H]2CC)c(C(=O)NCCN)c1
Ki [1]: 1.1 nM

Further lines, results first:

Ki [1]: 21 nM
Structure (SMILES): CC[C@@H]1CN(C(=O)c2ccc(C(F)(F)F)cc2Cl)CCN1c1ccc(-c2ccccc2Cl)cc1C(=O)NCCN

Ki [1]: 2 nM
Structure (SMILES): CCOc1ccccc1-c1ccc(N2CCN(C(=O)c3ccc(C(F)(F)F)cc3Cl)C[C@H]2CC)c(C(=O)NCCN)c1

half-life (in vitro [2]): > 11.6 h
Ki [1]: 3.7 nM
half-life (in vitro [6]): 1.28 h
Structure (SMILES): CCOc1ncccc1-c1ccc(N2CCN(C(=O)C3(C(F)(F)F)CCC3)C[C@H]2CC)c(C(=O)N[C@@H]2CCN(C)C2)n1

Ki [1]: 0.96 nM
Structure (SMILES): CCOc1ncccc1-c1ccc(N2CCN(C(=O)c3ccc(Cl)cc3C(F)(F)F)C[C@H]2CC)c(C(=O)NCCNC)c1

Cmax (in vivo [7]): 2.8 nM
Ki [1]: 4.8 nM
AUC(0-t) (in vivo [8]): 0.0081 µM·h
Structure (SMILES): CCOc1ccccc1-c1ccc(N2CCN(C(=O)c3ccc(Cl)cc3Cl)C[C@H]2CC)c(C(=O)NCCN)c1

Ki [1]: 47 nM
Structure (SMILES): CC[C@@H]1CN(C(=O)c2ccc(C(F)(F)F)cc2Cl)CCN1c1ccc(-c2ccccc2F)cc1C(=O)NCCN

half-life (in vitro [2]): 0.533 h
Ki [1]: 0.4 nM
half-life (in vitro [6]): 1.15 h
Structure (SMILES): CCOc1ncccc1-c1ccc(N2CCN(C(=O)C34CCC(C(F)(F)F)(CC3)CC4)C[C@H]2CC)c(C(=O)N[C@@H]2CCN(C)C2)n1

Ki [1]: 0.9 nM
Structure (SMILES): CCOc1ncccc1-c1ccc(N2CCN(C(=O)c3ccc(Cl)cc3C(F)(F)F)C[C@H]2CC)c(C(=O)NCCN(C)C)c1F

IC50 (Cytochrome P450 3A4): > 10000 nM
bioavailability (in vivo [9]): 100%
IC50 [10]: 750 nM
concentration at […] (in vivo [11]): 1530 ng/mL
concentration at 0.5 h (in vivo [12]): 1140 ng/mL
Vd (in vivo [13]): 10.5 L/kg
concentration at 0.5 h (in vivo [14]): 1460 ng/mL
half-life (in vivo [15]): 2.73 h
inhibition at 10 µM (L-type calcium channel): > 70%
concentration at 0.5 h (in vivo [16]): 0.927 ng/mL
IC50 (Melanocortin receptor 4): > 10000 nM
concentration at […] (in vivo [17]): 93.9 ng/mL
concentration at 0.5 h (in vivo [18]): 20 ng/mL
Vd (in vivo [19]): 3.19 L/kg
concentration at […] (in vivo [20]): 14.1 ng/mL
half-life (in vitro [2]): 3.85 h
concentration at 0.5 h (in vivo [21]): 0.88 ng/mL
concentration at 0.5 h (in vivo [22]): 127 ng/mL
concentration at […] (in vivo [23]): 87.5 ng/mL
IC50 (Cytochrome P450 2C9): > 10000 nM
clearance (in vivo [24]): 24.5 mL/min/kg
half-life (in vivo [25]): 9.55 h
AUC(0-t) (in vivo [26]): 4.97 µM·h
IC50 (Cytochrome P450 2D6): > 10000 nM
clearance (in vivo [27]): 14.2 mL/min/kg
Ki [1]: 2.1 nM
IC50 (Melanocortin receptor 3): > 10000 nM
Cmax (in vivo [28]): 1220 nM
efflux ratio (MDR1): 95
concentration at 0.5 h (in vivo [29]): 110 ng/mL
Papp (in vitro [30]): 1.9 ×10⁻⁶ cm/s
fraction unbound at 1 µM (in vitro [31]): 0.014
AUC(0-t) (in vivo [32]): 5.2 µM·h
concentration at […] (in vivo [33]): 1260 ng/mL
fraction unbound at 1 µM (in vitro [34]): 0.026
half-life (in vitro [6]): 3.85 h
Cmax (in vivo [35]): 650 nM
IC50 (Cytochrome P450 2C19): > 10000 nM
fraction unbound at 1 µM (in vitro [36]): 0.132
bioavailability (in vivo [37]): 47%
IC50 [38]: > 10000 nM
IC50 (Melanocortin receptor 5): > 10000 nM
Structure (SMILES): CCOc1ccccc1-c1ccc(N2CCN(C(=O)C3(C(F)(F)F)CCC3)C[C@H]2CC)c(C(=O)N[C@@H]2CN3CCC2CC3)n1 [ATUMELNANT]

Ki [1]: 36 nM
Structure (SMILES): CC[C@@H]1CN(C(=O)c2ccc(C(F)(F)F)cc2Cl)CCN1c1ccc(-c2cccc(F)c2Cl)cc1C(=O)NCCN
